ChEMBL document CHEMBL3244232, “Steric effects of substituents on phenethylamine hallucinogens. 3,4-(Methylenedioxy)amphetamine analogues alkylated on the dioxole ring” (J Med Chem, 1979)
The source made the active and inactive calls. No cut-off for these calls is given here.

Columns and labels:
Mus musculus [1] = test: Induction of spontaneous activity in Swiss Webster mouse assessed as spontaneous activity counts at 0.075 mmol/kg, ip measured over 90 mins; format: functional
Mus musculus [2] = test: Induction of hyperactivity in Swiss Webster mouse assessed as salivation at 0.225 to 0.3 mmol/kg, ip up to 90 mins; format: functional, organism-based
Mus musculus [3] = test: Toxicity in Swiss Webster mouse assessed as tremor at 0.675 mmol/kg, ip after 2 to 3 mins; format: organism-based; conditions: in vivo
Mus musculus [4] = test: Effect on Swiss Webster mouse assessed as sleeping at 0.025 to 0.3 mmol/kg, ip; format: ADME, organism-based; conditions: in vivo
Mus musculus [5] = test: Induction of hyperactivity in Swiss Webster mouse assessed as exploratory behavior at 0.025 to 0.3 mmol/kg, ip up to 90 mins; format: functional, organism-based
[6] = Octanol-water partition coefficient, log P of the compound; format: physicochemical
Mus musculus [7] = test: Induction of hyperactivity in Swiss Webster mouse assessed as exopthalmia at 0.025 to 0.3 mmol/kg, ip up to 90 mins; format: functional, organism-based
Mus musculus [8] = test: Induction of hyperactivity in Swiss Webster mouse assessed as grooming at 0.225 to 0.3 mmol/kg, ip up to 90 mins; format: functional, organism-based
Mus musculus [9] = test: Toxicity in Swiss Webster mouse assessed as ataxia at 0.675 mmol/kg, ip after 2 to 3 mins; format: organism-based; conditions: in vivo
Mus musculus [10] = test: Induction of hyperactivity in Swiss Webster mouse assessed as sniffing at 0.025 to 0.3 mmol/kg, ip up to 90 mins; format: functional, organism-based
Mus musculus [11] = test: Induction of spontaneous activity in Swiss Webster mouse assessed as spontaneous activity counts at 0.025 mmol/kg, ip measured over 90 mins; format: functional
Mus musculus [12] = test: Induction of hyperactivity in Swiss Webster mouse assessed as grooming at 0.025 to 0.3 mmol/kg, ip up to 90 mins; format: functional, organism-based
Mus musculus [13] = test: Toxicity in Swiss Webster mouse assessed as symmetric clonic convulsions with vocalization at 0.675 mmol/kg, ip after 2 to 3 mins; format: organism-based; conditions: in vivo
Mus musculus [14] = test: Induction of hyperactivity in Swiss Webster mouse assessed as salivation at 0.025 to 0.3 mmol/kg, ip up to 90 mins; format: functional, organism-based
Mus musculus [15] = test: Induction of hyperactivity in Swiss Webster mouse assessed as exopthalmia at 0.225 to 0.3 mmol/kg, ip up to 90 mins; format: functional, organism-based
[16] = Toxicity in ip dosed Swiss Webster mouse after 5 mins; format: organism-based; conditions: in vivo
Mus musculus [17] = test: Induction of spontaneous activity in Swiss Webster mouse assessed as spontaneous activity counts at 0.30 mmol/kg, ip measured over 90 mins; format: functional
Mus musculus [18] = test: Induction of spontaneous activity in Swiss Webster mouse assessed as spontaneous activity counts at 0.225 mmol/kg, ip measured over 90 mins; format: functional
Mus musculus [19] = test: Induction of hyperactivity in Swiss Webster mouse assessed as pilomotor erection at 0.025 to 0.3 mmol/kg, ip up to 90 mins; format: functional, organism-based
Mus musculus [20] = test: Toxicity in Swiss Webster mouse assessed as mortality at 0.675 mmol/kg, ip after 5 mins; format: organism-based; conditions: in vivo
Mus musculus [21] = test: Induction of hyperactivity in Swiss Webster mouse assessed as piloerection at <0.3 mmol/kg, ip up to 90 mins; format: functional, organism-based
Mus musculus [22] = test: Induction of hyperactivity in Swiss Webster mouse assessed as exopthalmia at <0.3 mmol/kg, ip up to 90 mins; format: functional, organism-based
Mus musculus [23] = test: Toxicity in Swiss Webster mouse assessed as clonic convulsions at 0.3 mmol/kg, ip up to 20 mins; format: organism-based; conditions: in vivo
Mus musculus [24] = test: Toxicity in Swiss Webster mouse assessed as mortality at 0.338 mmol/kg, ip after 5 mins; format: organism-based; conditions: in vivo
Mus musculus [25] = test: Induction of hyperactivity in Swiss Webster mouse assessed as sniffing at <0.3 mmol/kg, ip up to 90 mins; format: functional, organism-based
Mus musculus [26] = test: Toxicity in Swiss Webster mouse assessed as occasional tremor at 0.3 mmol/kg, ip up to 20 mins; format: organism-based; conditions: in vivo
Mus musculus [27] = test: Induction of hyperactivity in Swiss Webster mouse assessed as grooming at <0.3 mmol/kg, ip up to 90 mins; format: functional, organism-based
Mus musculus [28] = test: Induction of hyperactivity in Swiss Webster mouse assessed as exploratory behavior at <0.3 mmol/kg, ip up to 90 mins; format: functional, organism-based
Mus musculus [29] = test: Effect on Swiss Webster mouse assessed as sleeping at 0.3 mmol/kg, ip after 20 mins; format: ADME, organism-based; conditions: in vivo
Mus musculus [30] = test: Effect on Swiss Webster mouse assessed as sleeping at 0.675 mmol/kg, ip after 1 hr; format: ADME, organism-based; conditions: in vivo
Mus musculus [31] = test: Toxicity in Swiss Webster mouse assessed as tremor at 0.675 mmol/kg, ip after 8 to 10 mins; format: organism-based; conditions: in vivo
[32] = Chemical stability of the compound at 0.1 M at pH 5.3 at 37 degC after 24 hrs by 1H NMR spectroscopy; format: physicochemical; conditions: buffer, pH 5.3, 24 h
Mus musculus [33] = test: Toxicity in Swiss Webster mouse assessed as clonic convulsions at 0.675 mmol/kg, ip after 8 to 10 mins; format: organism-based; conditions: in vivo
Mus musculus [34] = test: Toxicity in Swiss Webster mouse assessed as depression at <0.3 mmol/kg, ip up to 90 mins; format: organism-based; conditions: in vivo, 1.5 h
Mus musculus [35] = test: Induction of hyperactivity in Swiss Webster mouse assessed as salivation at <0.3 mmol/kg, ip up to 90 mins; format: functional, organism-based
Mus musculus [36] = test: Effect on Swiss Webster mouse assessed as sleeping at <0.3 mmol/kg, ip up to 90 mins; format: ADME, organism-based; conditions: in vivo, 1.5 h
Mus musculus [37] = test: Toxicity in Swiss Webster mouse assessed as recovery at 0.675 mmol/kg, ip after 30 mins; format: organism-based; conditions: in vivo, 0.5 h

Structure (SMILES)	Activity (Mus musculus [1])	Activity (Mus musculus [5])	logP [6]	Activity (Mus musculus [7])	Activity (Mus musculus [10])	Activity (Mus musculus [11])	Activity (Mus musculus [12])	Activity (Mus musculus [14])	MTD at 5 min [16]	Activity (Mus musculus [17])	Activity (Mus musculus [18])	Activity (Mus musculus [19])	Activity (Mus musculus [20])	also measured
CC(N)Cc1ccc2c(c1)OC(C)O2 (centres undefined)	25 min⁻¹	Active	2.1	Active	Active	39 min⁻¹	Active	Active	300 µmol/kg	192 min⁻¹	94 min⁻¹	Active	Toxic	Activity (Mus musculus [2]): Active; Activity (Mus musculus [3]): Toxic; Activity (Mus musculus [4]): Non-toxic; Activity (Mus musculus [8]): Active; Activity (Mus musculus [9]): Toxic; Activity (Mus musculus [13]): Toxic; Activity (Mus musculus [15]): Active
CC(N)Cc1ccc2c(c1)OC(C)(C)O2 (centres undefined)	27 min⁻¹		2.6			30 min⁻¹			338 µmol/kg	33 min⁻¹	17 min⁻¹		Toxic	Activity (Mus musculus [21]): inactive; Activity (Mus musculus [22]): inactive; Activity (Mus musculus [23]): Toxic; Activity (Mus musculus [24]): Toxic; Activity (Mus musculus [25]): inactive; Activity (Mus musculus [26]): Toxic; Activity (Mus musculus [27]): inactive; Activity (Mus musculus [28]): inactive; Activity (Mus musculus [29]): Non-toxic; Activity (Mus musculus [30]): Non-toxic; Activity (Mus musculus [31]): Toxic; Stability [32]: Stable; Activity (Mus musculus [33]): Toxic; Activity (Mus musculus [34]): Toxic; Activity (Mus musculus [35]): inactive; Activity (Mus musculus [36]): Non-toxic; Activity (Mus musculus [37]): Non-toxic
CC(N)Cc1ccc2c(c1)OCO2 (centres undefined) [TENAMFETAMINE]	276 min⁻¹	Active	1.64	Active	Active	64 min⁻¹	Active	Active			105 min⁻¹	Active		
